The subject of assay [1] is human mixed lymphocyte reaction (MLR). The experiment in a line: human mixed lymphocyte reaction (MLR) activity. The class given is cell-based. To be noted: read-out: MLR activity(IC50, mg/ml). Here is the method: The measurement of the human MLR activity of the macrocyclic lactones of this invention carried out by standard procedures which are described in the literature (D. P. Dubey et al., in Manual of Clinical Laboratory Immunology, 3rd Ed., pp847-858, 1986). The cytotoxicities of the macrocyclic lactones were measured by the standard procedure (T. Mosmann, J., J. Immunol. Methods, 65, 55-63, 1983). The concentration of their cytotoxicities is several ten times higher than that of their MLR activities.

Assay [2] concerns Candida albicans. The experiment in a line: anti-Candida albicans activity, agar plate dilution method with paper disk, inhibition zone. The class given is cell-based. The note with it: Concentration 40 mg/disk; paper disk 8 mm; agar medium for neomycin assay. The source says: The paper disk (8 mm, Advantic) and agar medium for neomycin assay (Difco) were used in the tests. As the novel macrocyclic lactones inhibit the growth of Candida albicans, they have an antifungal activity.

Values after ≈ are worked out from the molar mass of the structure shown.

Take `CO[C@H]1C[C@@H]2CC[C@@H](C)[C@@](O)(O2)C(=O)C(=O)N2CCCC[C@H]2C(=O)O[C@H]([C@H](C)C[C@@H]2CC[C@@H](O)[C@H](OC)C2)CC(=O)[C@H](C)/C=C(\C)[C@@H](O)[C@@H](OC)C(=O)[C@H](C)C[C@H](C)/C=C/C=C/C=C/1C` [Rapamycin, rapamycin]: in assay [1], the IC50 was 0.01 mg/L (≈ 0.0109 µM). Moreover, in assay [2], the “The diameter of inhibition zone (mm)” value came to 25 mm.

The values above are taken from patent EP0627009B1, “MACROCYCLIC LACTONES AND A PRODUCTIVE STRAIN THEREOF” (PFIZER INC., priority 1992, dated 1993).
